Two compounds from US7579325B2, “Drugs containing reduced of vitamin B2” (Eisai R & D Management Co., Ltd., priority 2001, dated 2009) can be followed below.

Experiment [1] in a line: Effect on endotoxin shock model (LPS, mouse survival). In kind it is in vivo, mice. The settings on record: for survival number / survival rate %: male ICR mice, 10 per group, 4 days after administration. As to the method: (§1) Riboflavin sodium phosphate (FMN-Na, JP grade) and leucoflavin sodium phosphate (FMN-H2) prepared in Example 1 were used.
Male mice (Slc: ICR, 6-week old) (10 mice per each test group) was administered intraperitoneally with lipopolysaccharide from E. coli serum type 0111-B4 (Sigma; abbreviated as “LPS” hereinbelow) at a dose of 15 mg/kg.
Six hours after the administration, each of riboflavin sodium phosphate (dosage: […] in dosage volumes of 0.25, 0.5 and 1 ml, respectively) and leucoflavin phosphate (dosage: 2.5, 5 and 10 mg/kg in dosage volumes of 0.25, 0.5 and 1 ml, respectively) which had been dissolved in physiological saline and sterilized by filtration was administered intraperitoneally. The survival rate was determined 4 days after the administration. In the control group, 1.0 ml of physiological saline was administered intraperitoneally instead of the drugs. The determination of the medicinal efficacy was conducted by χ^2 test.

Experiment [2] deals with Staphylococcus aureus BO-72 strain. As to the kind of experiment: Effect on Staphylococcus aureus-infected model (mouse survival). In kind it is in vivo. The settings on record: for survival number / survival rate %: male ICR mice, 10 per group, 10 days after inoculation. The procedure: as §1
Male mice (Slc: ICR, 8-week old) (10 mice per each test group) was administered intraperitoneally with each of riboflavin sodium phosphate (dosage: 25, 50 and 100 mg/kg in dosage volumes of 0.25, 0.5 and 1 ml, respectively) and leucoflavin phosphate (dosage: 2.5, 5 and 10 mg/kg in dosage volumes of 0.25, 0.5 and 1 ml, respectively) which had been dissolved in physiological saline and sterilized by filtration. Twenty-four hours after the administration, Staphylococcus aureus BO-72 strain was administered intravenously at a dose of 8.7×10^7 CFU/mouse (suspended in 0.2 ml of physiological saline), and the survival rate was determined 10 days after the inoculation. In the control group, 1.0 ml of physiological saline was administered intraperitoneally instead of the drugs. The determination of the medicinal efficacy was conducted by χ^2 test.

Another experiment relates to E. coli E01292 strain. Put plainly: Effect on E. coli-infected model (mouse survival). Format: in vivo. The settings on record: for survival number / survival rate %: male ICR mice, 10 per group, 4 days after inoculation. The procedure: Twelve mg of riboflavin sodium phosphate (FMN-Na, JP grade) was dissolved in 40 ml of physiological saline and then added and mixed with 480 mg of sodium hydrosulfite to produce leucoflavin phosphate (FMN-H2).
Male mice (Slc: ICR, 8-week old) (10 mice per each test group) was administered intraperitoneally with each of riboflavin sodium phosphate (dosage: 12.5, 25, 50 and 100 mg/kg in dosage volumes of 0.125, 0.25, 0.5 and 1 ml, respectively) and leucoflavin phosphate (dosage: 1.25, 2.5, 5 and 10 mg/kg in dosage volumes of 0.125, 0.25, 0.5 and 1 ml, respectively) which had been dissolved in physiological saline and sterilized by filtration. Twenty-four hours after the administration, E. coli E01292 strain was inoculated subcutaneously at a dose of 5.3×10^7 CFU/mouse (suspended in 0.2 ml of physiological saline), and the survival rate was determined 4 days after the inoculation. In the control group, 1.0 ml of physiological saline was administered intraperitoneally instead of the drugs. The determination of the medicinal efficacy was conducted by χ^2 test.

The mark [3] stands for this setting: 2.5 mg/kg i.p. 6 h after LPS 15 mg/kg i.p.
The mark [4] stands for this setting: 5 mg/kg i.p. 6 h after LPS 15 mg/kg i.p.
Where [5] appears, read: 10 mg/kg i.p. 6 h after LPS 15 mg/kg i.p.
Where [6] appears, read: 2.5 mg/kg i.p. 24 h before i.v. S. aureus.
The mark [7] stands for this setting: 5 mg/kg i.p. 24 h before i.v. S. aureus.
Setting [8] is: 10 mg/kg i.p. 24 h before i.v. S. aureus.
[9] abbreviates: 1.25 mg/kg i.p. 24 h before s.c. E. coli inoculation.
Setting [10] is: 2.5 mg/kg i.p. 24 h before s.c. E. coli inoculation.
The mark [11] stands for this setting: 5 mg/kg i.p. 24 h before s.c. E. coli inoculation.
Where [12] appears, read: 10 mg/kg i.p. 24 h before s.c. E. coli inoculation.
[13] abbreviates: 20 mg/kg i.p. 6 h after LPS 15 mg/kg i.p.
[14] abbreviates: 25 mg/kg i.p. 24 h before i.v. S. aureus.
Where [15] appears, read: 50 mg/kg i.p. 24 h before i.v. S. aureus.
[16] abbreviates: 100 mg/kg i.p. 24 h before i.v. S. aureus.
The mark [17] stands for this setting: 12.5 mg/kg i.p. 24 h before s.c. E. coli inoculation.
[18] abbreviates: 25 mg/kg i.p. 24 h before s.c. E. coli inoculation.
Where [19] appears, read: 50 mg/kg i.p. 24 h before s.c. E. coli inoculation.
[20] abbreviates: 100 mg/kg i.p. 24 h before s.c. E. coli inoculation.

In the case of `Cc1cc2c(cc1C)N(C[C@H](O)[C@H](O)[C@H](O)COP(=O)(O)O)c1[nH]c(=O)[nH]c(=O)c1N2` [FMN-H2, leucoflavin phosphate], the survival number in experiment [1] (setting [3]) is reported as 2; in experiment [1] (setting [4]), 6; in experiment [1] (setting [5]), 8; in experiment [2] (setting [6]), 3; in experiment [2] (setting [7]) it was 6; in experiment [2] (setting [8]), 8. In addition, the survival number in the experiment on E. coli E01292 strain (setting [9]) is recorded as 0; in the experiment with E. coli E01292 strain (setting [10]), 4; in the experiment on E. coli E01292 strain (setting [11]), 6; in the experiment with E. coli E01292 strain (setting [12]) it was 9. Also, the survival rate % in experiment [1] (setting [3]) is recorded as 20%; in experiment [1] (setting [4]), 60%; in experiment [1] (setting [5]), 80%; in experiment [2] (setting [6]) it was 30%; in experiment [2] (setting [7]) it was 60%; in experiment [2] (setting [8]), 80%. Also, the survival rate % turned out to be 10% in the experiment with E. coli E01292 strain (setting [9]), 40% in the experiment on E. coli E01292 strain (setting [10]), 60% with E. coli E01292 strain (setting [11]) and 90% in the experiment on E. coli E01292 strain (setting [12]). In addition, the “life-saving effect on endotoxin shock compared with riboflavin sodium phosphate” value in experiment [1] (mice, from Table 3) is on record as “about 2 fold”. The “infection-protective effect against Staphylococcus aureus compared with riboflavin sodium phosphate” value in experiment [2] (mice, from Table 2) is “about 10 fold”. In addition, in the experiment with E. coli E01292 strain (mice, from Table 1), the “infection-protective effect against E. coli compared with riboflavin sodium phosphate” value was “about 10 fold”.
For the compound `Cc1cc2nc3c(=O)[nH]c(=O)nc-3n(C[C@H](O)[C@H](O)[C@H](O)COP(=O)(O)O)c2cc1C` [VB2Na, riboflavin sodium phosphate, reference compound], the survival number came to 3 in experiment [1] (setting [4]); 4 in experiment [1] (setting [5]); 7 in experiment [1] (setting [13]); 2 in experiment [2] (setting [14]); 4 in experiment [2] (setting [15]); 7 in experiment [2] (setting [16]). In addition, the survival number in the experiment on E. coli E01292 strain (setting [17]) came out at 1; in the experiment on E. coli E01292 strain (setting [18]), 3; in the experiment on E. coli E01292 strain (setting [19]), 5; with E. coli E01292 strain (setting [20]), 9. Also, the survival rate % in experiment [1] (setting [4]) was determined as 30%; in experiment [1] (setting [5]) it was 40%; in experiment [1] (setting [13]), 70%; in experiment [2] (setting [14]), 20%; in experiment [2] (setting [15]), 40%; in experiment [2] (setting [16]), 70%. Further, the survival rate % in the experiment on E. coli E01292 strain (setting [17]) was 10%; in the experiment with E. coli E01292 strain (setting [18]) it was 30%; in the experiment on E. coli E01292 strain (setting [19]) it was 50%; in the experiment with E. coli E01292 strain (setting [20]) it was 90%.
